Experimental data as given in PubChem BioAssay AID788 (SRMLSC, 2007).
Activity calls are given as the source filed them. How the calls were made is not given here.

Assays:
[1] = tested on: S. cerevisiae wild-type background strain growth inhibition; test: vps1Δ apl2Δ double mutant yeast growth inhibitors – S. cerevisiae, background strain comparison, post-Golgi transport modulator project, dose response (AID 788); details: S. cerevisiae vps1Δ apl2Δ growth inhibition, dose response; measured here: wild-type background strain growth
[2] = tested on: S. cerevisiae vps1Δ apl2Δ growth inhibition, dose response; test: as above
[3] = as above; details: S. cerevisiae vps1Δ apl2Δ growth inhibition, dose response; at 25 µM (top of the series)

SMILES	IC50 [1]	IC50 [2]	growth inhibition [3]
O=C(NCCc1ccccc1)C1CCN(S(=O)(=O)N2CCCC2)CC1	> 10 µM	> 10 µM (inactive)	
O=C(CCl)c1ccc(Cc2ncc(C(F)(F)F)cc2Cl)s1	8.68 µM	16.2 µM (inactive)	
Cc1ccc(S(=O)(=O)NC(CC(C)C)C(=O)Oc2ccc3c4c(c(=O)oc3c2)CCC4)cc1 (centres undefined)	> 10 µM	> 10 µM (inactive)	
COC(=O)C1=CN(CCCN2CCCC2=O)C=C(C(=O)OC)C1c1ccccc1C(F)(F)F	> 10 µM	> 10 µM (inactive)	
Cc1ccc(S(=O)(=O)N2CCN(C3CCN(Cc4ccccc4)CC3)CC2)cc1	> 10 µM	24.5 µM	
Clc1ccc(-c2n[nH]c3c2CCC3)cc1Cl	1.81 µM	2.65 µM (inactive)	
O=S(=O)(NCC(c1cccnc1)N1CCN(c2ccccc2)CC1)c1cccs1 (centres undefined)	> 10 µM	23 µM	
CCOc1ccc(-c2[nH]ncc2Oc2ccccc2OCC)c(O)c1	16 µM	7.98 µM	
CCN(CC)CCn1nc(C)nc1-c1ccccc1O	> 10 µM	> 10 µM (inactive)	
CCOC(=O)COc1ccccc1C1Nc2ccccc2C(=O)N1c1cccc(Cl)c1 (centres undefined)	> 10 µM	19.3 µM	
O=C(OCn1ncc(Br)c(Br)c1=O)c1ccc(F)cc1	5.38 µM	5.12 µM	
C/C(CCC12CC3CC(CC(C3)C1)C2)=N\NC(N)=S	5.28 µM	1.65 µM	
CC1CCCCC1NC(=O)CSc1nnnn1-c1ccccc1 (centres undefined)	> 10 µM	> 10 µM (inactive)	
Cc1cccc(OCC(=O)O/N=C(\N)Cc2ccc(Cl)cc2)c1	10.4 µM	> 10 µM (inactive)	
Cc1ccc(C(=O)c2c(NC(=O)c3ccncc3)sc3c2CCCC3)cc1	> 10 µM	16.9 µM	
COc1cccc(-c2cc(C(=O)N3CCN(C(c4ccccc4)c4ccccc4)CC3)no2)c1	> 10 µM	> 10 µM (inactive)	
Cc1ccc(C(C)C)c(OCCCN2CC(C)OC(C)C2)c1 (centres undefined)	> 10 µM	9.78 µM	
CCc1ccc(C(=O)/C=C/c2ccc([N+](=O)[O-])o2)cc1	20.7 µM	23.1 µM (inactive)	
O=S(=O)(c1ccc(Cl)cc1)N1CCN(C2CCN(Cc3ccccc3)CC2)CC1	> 10 µM	5.15 µM	
CC(NC(=O)CSc1nc2c(cc1C#N)CN(C)CC2)c1ccccc1 (centres undefined)	> 10 µM	> 10 µM (inactive)	
CCN(CC)c1ccc(-c2nc3cnccc3n2C)cc1	> 10 µM	> 10 µM (inactive)	
CC(C)Oc1ccc(/C(O)=C2/C(=O)C(=O)N(CCN(C)C)C2c2ccco2)cc1 (centres undefined)	> 10 µM	> 10 µM (inactive)	
Cn1nnc2cc(C(=O)Nc3cccnc3)ccc21	> 10 µM	> 10 µM (inactive)	
CC1CC(C)CN(CCOc2ccc(Cl)cc2Cl)C1 (centres undefined)	> 10 µM	6.68 µM	
CCCCS(=O)(=O)/C=C\C=C/S(=O)(=O)CCCC	13.9 µM	12.1 µM	

SMILES	IC50 [1]	IC50 [2]	growth inhibition [3]
O=C(NCc1ccc2c(c1)OCO2)C1CCCN1C(=O)Nc1ccccc1 (centres undefined)	> 10 µM	> 10 µM (inactive)	
c1ccc(-c2ccc(-c3cnc4n3CCCCC4)cc2)cc1	> 10 µM	> 10 µM (inactive)	
CCc1cc(=O)oc2cc(C)c(CN3CCCC(C)C3)c(O)c12 (centres undefined)	> 10 µM	> 10 µM (inactive)	
Cc1ccc(SC(=O)COc2ccc(C)c(C)c2)cc1	> 10 µM	> 10 µM (inactive)	
O=C(OCn1ncc(Cl)c(Cl)c1=O)c1ccccc1Cl	16.6 µM	15.5 µM	
O=[N+]([O-])c1ccc(N/N=C/c2c[nH]c3ccccc23)c(S(=O)(=O)Nc2ccc(Cl)cc2)c1	2.5 µM	2.15 µM	
Cc1ccc(C2(C(F)(F)F)N=C3Sc4cc(C)cc(C)c4N3C(=O)N2)cc1 (centres undefined)	1.08 µM	1.5 µM (inactive)	
COc1cccc(OCCCCN2CC(C)OC(C)C2)c1 (centres undefined)	> 10 µM	4.38 µM	
O=S(=O)(c1cnccc1N1CCN(/N=C/c2ccc(Br)cc2)CC1)N1CCCCC1	> 10 µM	> 10 µM (inactive)	
COC(=O)c1ccc(CSc2nnc(NC(C)C)s2)cc1	> 10 µM	> 10 µM (inactive)	
CCN(CC)CCCN(Cc1cc2cc3c(cc2[nH]c1=O)OCCO3)C(=O)Nc1ccc(F)cc1	> 10 µM	> 10 µM (inactive)	
CCC(=O)N(CCO)Cc1cc2ccc(C)c(C)c2[nH]c1=O	> 10 µM	> 10 µM (inactive)	
COc1ccccc1N1CCN(CC(O)c2ccc3cc[nH]c3c2)CC1 (centres undefined)	> 10 µM	> 10 µM (inactive)	
Cc1cccc(-n2c(N)c(C(=O)NCCN3CCOCC3)c3nc4ccccc4nc32)c1	> 10 µM	> 10 µM (inactive)	
O=C(NCC(c1cccnc1)N1CCN(c2ccccc2)CC1)C1CCCCC1 (centres undefined)	> 10 µM	> 10 µM (inactive)	
O=C(N/N=C/c1ccc([N+](=O)[O-])o1)c1cc(-c2cccc(Br)c2)nc2ccccc12	4.65 µM	1.02 µM	
COCCCNc1ccnc2c(Cl)cccc12	> 10 µM	> 10 µM (inactive)	
Cc1ccc(C(=O)OCn2ncc(Cl)c(Cl)c2=O)cc1	4.62 µM	4.22 µM	
COc1cccc(NC(=O)C2CCCN2C(=O)OCc2ccccc2)c1 (centres undefined)	> 10 µM	> 10 µM (inactive)	
Cc1nc(NC(=O)c2ccccc2)sc1-c1csc(Nc2ccc(F)cc2)n1	> 10 µM	> 10 µM (inactive)	
O=C(CCC(=O)OCC(=O)c1ccc(F)cc1)NC1CCCCC1	> 10 µM	> 10 µM (inactive)	
Cc1ccn2cc(-c3nonc3C)cc2c1	> 10 µM	> 10 µM (inactive)	
CCOCCCNC(=O)C1CCN(C(=O)N(C)C)CC1	> 10 µM	> 10 µM (inactive)	
O=C(Nc1cccc(Cl)c1)N1CCN(C/C=C/c2ccccc2)CC1	> 10 µM	> 10 µM (inactive)	
Cn1c(=O)cc(NCc2ccccc2)[nH]c1=O	> 10 µM	> 10 µM (inactive)	

SMILES	IC50 [1]	IC50 [2]	growth inhibition [3]
COc1ccc2c(c1)C(C)=CC(C)(C)N2C(=O)CSc1nnc(-c2ccc(C)cc2)o1	> 10 µM	> 10 µM (inactive)	
Fc1ccc(Cn2nnc(-c3ccc(CN4CCOCC4)cc3)n2)cc1	> 10 µM	5.15 µM	
Cc1ccc(Cl)c(OCCCCN(C)Cc2ccccc2)c1	> 10 µM	3.13 µM	
CN1C(=O)/C(=C/c2cccn2-c2ccc3ccccc3c2)C(=O)NC1=S	6.58 µM	10.4 µM (inactive)	
COc1ccc(N2CCN(C(=O)CCNS(=O)(=O)c3ccc(Br)s3)CC2)cc1	> 10 µM	> 10 µM (inactive)	
COCCNC(=O)C(c1ccc(F)cc1)N(CC1CCCO1)C(=O)CCC(=O)Nc1ccccn1 (centres undefined)	> 10 µM	> 10 µM (inactive)	
O=C(COc1ccc(Br)cc1F)NC1CCN(Cc2ccccc2)CC1	> 10 µM	3.05 µM	
CCCC(=O)N1CCN(c2ccc(NC(=O)c3cc4ccccc4o3)cc2Cl)CC1	19.2 µM	20.8 µM (inactive)	
CCCCCOc1ccc(Cl)cc1CN1CCOCC1	> 10 µM	20.6 µM	
CCc1ccc(N(C(=O)c2csnn2)C(C(=O)NC(C)(C)C)c2ccncc2)cc1 (centres undefined)	> 10 µM	> 10 µM (inactive)	
COc1ccc(C2C3=C(CCCC3=O)Nc3nc(-c4cc(OC)c(OC)c(OC)c4)nn32)cc1OC (centres undefined)	> 10 µM	> 10 µM (inactive)	
COc1ccc(C2CC(=O)C3=C(C2)NC(C)=C(C(=O)Nc2ccccc2C)C3c2coc3ccc(C)cc3c2=O)cc1OC (centres undefined)	> 10 µM	> 10 µM (inactive)	
CCCCC1(CCCC)C(=O)NC(=Nc2cccc(C)c2)NC1=O	> 10 µM	> 10 µM (inactive)	
CCC(C)c1ccc(OCCCCN2CCOCC2)cc1 (centres undefined)	> 10 µM	4.71 µM	
O=C(O)c1cc(-c2ccc(/C=N/Nc3ccc(Cl)cc3)o2)ccc1Cl	16.4 µM	10.9 µM	
Cc1cc(N2C(=O)C3CCCN3C2c2sccc2C)no1 (centres undefined)	> 10 µM	> 10 µM (inactive)	
ON=Cc1cccn1-c1ccccc1	> 10 µM	> 10 µM (inactive)	
Cn1c2ccc(Cl)cc2c2nc3ccccc3nc21	> 10 µM	> 10 µM (inactive)	
Cc1nc(NC(=O)c2ccccc2)sc1-c1csc(NCc2ccccc2)n1	> 10 µM	3.54 µM	
CCC(=O)c1ccc(N2CCN(C(=O)c3ccc(Br)cc3)CC2)c(F)c1	> 10 µM	25 µM	
Clc1ccc(-c2n[nH]c3c2CCC3)c(Cl)c1	0.518 µM	1.04 µM (inactive)	
O=C(Nc1nnc(-c2ccccc2)o1)c1ccc(Cl)cc1	0.65 µM	2.46 µM (inactive)	
O=C(Nc1nnc(-c2cccs2)o1)c1cccc(C(F)(F)F)c1			36.6% (inactive)
CC(C)COC(=O)c1ccc2c(c1O)C(=O)c1ccccc1C2=O	> 10 µM	> 10 µM (inactive)	
Cc1cc(Cl)cc(C)c1OCCCCN1CCOCC1	> 10 µM	> 10 µM (inactive)	
